# Results taken from PMC11672637, “7-O-Carboxylic Acid-Substituted 3-O-Alkyl Difluoroquercetin; An Aztreonam-Potentiating Agent Against Carbapenemase-Producing Pseudomonas aeruginosa Through Simultaneous Inhibition of Metallo-β-Lactamase and Efflux Pump” (Antibiotics, 2024).
# Read-outs that look alike come from different tables or passages of the source.
# What was measured:
# Experiment in all cases: MIC / checkerboard with ATM
# PA-014, blaGES = format: cell-based, P. aeruginosa; conditions: for MIC: Pseudomonas aeruginosa, read-out: MIC of ATM with 5, PA-014
# PA-021, blaIMP = format: cell-based, P. aeruginosa; conditions: for MIC: Pseudomonas aeruginosa, read-out: MIC of ATM with 5, PA-021
# PA-030, blaIMP = format: cell-based, P. aeruginosa; conditions: for MIC: Pseudomonas aeruginosa, read-out: MIC of ATM with 5, PA-030
# [1] = tested on: NDM-1-Producing P. aeruginosa (PA-017, blaNDM); format: cell-based; conditions: for MIC: Pseudomonas aeruginosa
# PA-026, blaNDM = format: cell-based, P. aeruginosa; conditions: PA-026
smiles,measurement,setting,value
"CC(C)(C)CCOc1c(-c2ccc(F)c(F)c2)oc2cc(OCC(=O)O)cc(O)c2c1=O [Compound 5, 2-((2-(3,4-Difluorophenyl)-3-(3,3-dimethylbutoxy)-5-hydroxy-4-oxo-4H-chromen-7-yl)oxy)acetic Acid]",Activity (FICI class),"PA-014, blaGES; PA-014","S (S (Synergy, FICI ≤ 0.5))"
same,Concentrations of ATM and 5 at lowest FICI (ATM/5),"PA-014, blaGES; PA-014",4/16
same,Lowest FICI (ATM/5),"PA-014, blaGES; PA-014",0.28
same,Minimum concentration of 5 to make sensitive to ATM,"PA-014, blaGES; PA-014",4 mg/L
same,Susceptibility to ATM,"PA-014, blaGES; PA-014, ATM/5","S (S (sensitive, MIC ≤ 8 mg/L))"
same,FD (fold decrease in MIC of ATM with 5),"PA-014, blaGES; PA-014, lowest-FICI combination",4
same,MIC,"PA-014, blaGES; 5 at 1 mg/L",16 µg/mL
same,MIC,"PA-014, blaGES; 5 at 2 mg/L",16 µg/mL
same,MIC,"PA-014, blaGES; 5 at 4 mg/L",8 µg/mL
same,MIC,"PA-014, blaGES; 5 at 8 mg/L",8 µg/mL
same,MIC,"PA-014, blaGES; 5 at 16 mg/L",4 µg/mL
same,MIC,"PA-014, blaGES; 5 at 32 mg/L",4 µg/mL
same,MIC,"PA-014, blaGES; 5 at 64 mg/L",4 µg/mL
same,Activity (FICI class),"PA-021, blaIMP; PA-021","I (I (indifference, 0.5 < FICI ≤ 4))"
same,Lowest FICI (ATM/5),"PA-021, blaIMP; PA-021",0.50
same,Susceptibility to ATM,"PA-021, blaIMP; PA-021, ATM/5","S (S (sensitive, MIC ≤ 8 mg/L))"
same,FD (fold decrease in MIC of ATM with 5),"PA-021, blaIMP; PA-021, lowest-FICI combination",2
same,MIC,"PA-021, blaIMP; 5 at 1 mg/L",1 µg/mL
same,MIC,"PA-021, blaIMP; 5 at 2 mg/L",0.5 µg/mL
same,MIC,"PA-021, blaIMP; 5 at 4 mg/L",0.5 µg/mL
same,MIC,"PA-021, blaIMP; 5 at 8 mg/L",0.5 µg/mL
same,MIC,"PA-021, blaIMP; 5 at 16 mg/L",0.5 µg/mL
same,MIC,"PA-021, blaIMP; 5 at 32 mg/L",0.5 µg/mL
same,MIC,"PA-021, blaIMP; 5 at 64 mg/L",0.5 µg/mL
same,Activity (FICI class),"PA-030, blaIMP; PA-030","S (S (Synergy, FICI ≤ 0.5))"
same,Concentrations of ATM and 5 at lowest FICI (ATM/5),"PA-030, blaIMP; PA-030",16/4
same,Lowest FICI (ATM/5),"PA-030, blaIMP; PA-030",0.26
same,Minimum concentration of 5 to make sensitive to ATM,"PA-030, blaIMP; PA-030",16 mg/L
same,Susceptibility to ATM,"PA-030, blaIMP; PA-030, ATM/5","S (S (sensitive, MIC ≤ 8 mg/L))"
same,FD (fold decrease in MIC of ATM with 5),"PA-030, blaIMP; PA-030, lowest-FICI combination",4
same,MIC,"PA-030, blaIMP; 5 at 1 mg/L",32 µg/mL
same,MIC,"PA-030, blaIMP; 5 at 2 mg/L",32 µg/mL
same,MIC,"PA-030, blaIMP; 5 at 4 mg/L",16 µg/mL
same,MIC,"PA-030, blaIMP; 5 at 8 mg/L",16 µg/mL
same,MIC,"PA-030, blaIMP; 5 at 16 mg/L",8 µg/mL
same,MIC,"PA-030, blaIMP; 5 at 32 mg/L",8 µg/mL
same,MIC,"PA-030, blaIMP; 5 at 64 mg/L",4 µg/mL
same,Activity (FICI class),[1]; PA-017,"S (S (Synergy, FICI ≤ 0.5))"
same,Concentrations of ATM and 5 at lowest FICI (ATM/5),[1]; PA-017,4/4
same,Lowest FICI (ATM/5),[1]; PA-017,0.26
same,Minimum concentration of 5 to make sensitive to ATM,[1]; PA-017,4 mg/L
same,Susceptibility to ATM,"[1]; PA-017, ATM/5","S (S (sensitive, MIC ≤ 8 mg/L))"
same,FD (fold decrease in MIC of ATM with 5),"[1]; PA-017, lowest-FICI combination",4
same,MIC,"[1]; PA-017, compound alone, read-out: MIC, Cmpd",> 256 µg/mL
same,MIC,"[1]; read-out: MIC of ATM with 5, PA-017, 5 at 1 mg/L",8 µg/mL
same,MIC,"[1]; read-out: MIC of ATM with 5, PA-017, 5 at 2 mg/L",8 µg/mL
same,MIC,"[1]; read-out: MIC of ATM with 5, PA-017, 5 at 4 mg/L",4 µg/mL
same,MIC,"[1]; read-out: MIC of ATM with 5, PA-017, 5 at 8 mg/L",4 µg/mL
same,MIC,"[1]; read-out: MIC of ATM with 5, PA-017, 5 at 16 mg/L",2 µg/mL
same,MIC,"[1]; read-out: MIC of ATM with 5, PA-017, 5 at 32 mg/L",2 µg/mL
same,MIC,"[1]; read-out: MIC of ATM with 5, PA-017, 5 at 64 mg/L",1 µg/mL
same,Activity (FICI class),"PA-026, blaNDM","S (S (Synergy, FICI ≤ 0.5))"
same,Concentrations of ATM and 5 at lowest FICI (ATM/5),"PA-026, blaNDM",2/4
same,Lowest FICI (ATM/5),"PA-026, blaNDM",0.26
